Measured values taken from patent US20250281451A1, “COMPOSITIONS AND METHODS FOR MODULATING SLEEP AND USES THEREOF” (Brightseed, Inc., priority 2022, published 2025).
Entries after “also recorded” stand apart in the source; their conditions may differ.

Tests used:
Orx2 = biological target: T1, Orx2 (Homo sapiens, UniProt O43614); assay: Orx2 antagonist screening, chemiluminescent cell assay with Orexin B EC80; type: cell-based; details: for % Agonism Orx2 at Relative IC50: absolute percent agonism at the μM concentration of the relative OR2 IC50; for IC50: antagonist mode against Orexin B EC80, read-out: Relative IC50 of Orx2; for IC50 Dilution of Orx2 (fold dilution): concentration of the fraction of the plant source, in fold dilution, needed to achieve IC50 of OR2
T1 construct: DiscoverX
T1 sequence (O43614 1-444): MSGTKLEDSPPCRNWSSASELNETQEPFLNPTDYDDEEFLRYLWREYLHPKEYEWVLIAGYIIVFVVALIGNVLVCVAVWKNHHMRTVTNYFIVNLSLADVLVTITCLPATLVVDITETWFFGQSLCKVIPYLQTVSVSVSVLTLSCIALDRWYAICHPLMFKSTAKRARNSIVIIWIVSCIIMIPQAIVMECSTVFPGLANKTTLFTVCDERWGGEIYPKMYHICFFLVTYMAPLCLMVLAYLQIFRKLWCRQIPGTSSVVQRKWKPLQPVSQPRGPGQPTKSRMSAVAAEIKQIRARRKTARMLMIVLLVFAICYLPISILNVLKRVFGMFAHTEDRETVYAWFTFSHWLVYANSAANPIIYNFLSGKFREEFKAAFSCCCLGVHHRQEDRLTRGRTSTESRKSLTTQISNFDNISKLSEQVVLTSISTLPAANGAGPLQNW
Procedure: For this example, the following protocol was used: 1.) seed cells in 20 μL Cell Plating Reagent; 2.) incubate cells overnight at 37° C. and 5% CO2; 3.) treat cells with 2.5 μL 10× antagonist prepared in Compound Dilution Buffer (For OR2 screening, 2.5 μL of 1:100 natural product sample in DiscoverX cell plating reagent. Control antagonist, Seltorexant, 10× stock was prepared at 1500 nM); 4.) incubate for 30 minutes at 37° C. and 5% CO2; 5.) treat cells with 2.5 μL 10× agonist prepared in Compound Dilution Buffer (For OR2 screening, 2.5 μL of 10× Orexin B EC80, 252.7 nM); 6.) incubate for 90 minutes at 37° C. and 5% CO2; 7.) add 12.5 μL Working Detection Solution; 8.) incubate for 1 hour at room temperature in the dark; and 9.) read chemiluminescent signal.
(§1) The plants described herein were tested to determine the concentration, in μM, to achieve the relative IC50 of OR2 receptor, the absolute percent agonism achieved at the μM concentration of the relative OR2 IC50, the percentage receptor activity at the concentration, in μM, needed to achieve IC50 in OR2, the percentage cell viability, measured by XTT assay, at the IC50 μM concentration, the concentration of the fraction, in fold dilution, needed to achieve IC50 of OR2, and the percentage receptor activity at the concentration of the fraction, in fold dilution, needed to achieve IC50 of OR2.

Orx1 = biological target: T2, Orx1 (Homo sapiens, UniProt O43613); assay: % agonism on Orx1 at the OR2 IC50 concentration; type: cell-based; details: at the μM concentration needed to achieve IC50 in OR2
T2 sequence (O43613 1-425): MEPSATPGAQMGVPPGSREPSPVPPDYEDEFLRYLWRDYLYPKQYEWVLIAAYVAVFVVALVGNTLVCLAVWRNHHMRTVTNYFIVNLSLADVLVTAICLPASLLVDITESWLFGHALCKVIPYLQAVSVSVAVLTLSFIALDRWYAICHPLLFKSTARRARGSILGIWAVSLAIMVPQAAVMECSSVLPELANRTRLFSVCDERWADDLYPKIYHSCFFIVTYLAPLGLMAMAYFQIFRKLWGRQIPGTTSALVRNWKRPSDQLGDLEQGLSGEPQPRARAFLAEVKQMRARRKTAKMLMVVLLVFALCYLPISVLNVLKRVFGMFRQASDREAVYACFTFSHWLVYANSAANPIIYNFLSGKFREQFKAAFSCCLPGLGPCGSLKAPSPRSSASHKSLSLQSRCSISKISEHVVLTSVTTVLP
Procedure: For this example, the following protocol was used: 1.) seed cells in 20 μL Cell Plating Reagent; 2.) incubate cells overnight at 37° C. and 5% CO2; 3.) treat cells with 2.5 μL 10× antagonist prepared in Compound Dilution Buffer (For OR2 screening, 2.5 μL of 1:100 natural product sample in DiscoverX cell plating reagent.
as §1

cells = assay: cell viability, XTT assay; type: cell-based; details: at the IC50 μM concentration of the compound
Procedure: as §1

male Sprague-Dawley rat = assay: in vivo tolerability, dose escalation, adverse effect observation; details: for 15 min effects (adverse effects) / 30 min effects (adverse effects) / 60 min effects (adverse effects): n=3 rats, (x/3) animals affected
Procedure: In this example, the in vivo tolerability of Compounds 26, 21, 29, and 13 was assessed.
Naïve rats (male Sprague-Dawley rat) were acclimatized to the procedure room in their home cages up to 7 days following arrival to the test facility, with food and water available ad libitum. On the day of experiment, animals were acclimatized to the experimental room for at least one hour prior to the beginning of any experiment. All animals were tail marked, weighed and randomly assigned to treatment groups. The animals (n=3 per dose) were treated with either Compounds 26, 21, 29, and 13 (10 mL/kg, p.o.). For each compound a maximum of 4 doses were tested using a dose escalation procedure starting from 30 mg/kg. If this initial dose is well-tolerated, the dosage is increased to 100 mg/kg. If the 30 mg/kg dose is not tolerated, the dose is reduced to 15 mg/kg. Following the dose escalation procedure, if the 100 mg/kg dose is well-tolerated, the dose is escalated to 315 mg/kg. If it is not tolerated, the dose is decreased to 60 mg/kg. The pattern continues with the next decision point: if 315 mg/kg is well-tolerated, the dose is increased to the maximum of 500 mg/kg. If 315 mg/kg is not tolerated, the dose is decreased to 200 mg/kg.
The compounds would be considered not tolerated if three or more adverse effects (or any severe adverse effect) occurred at specific dose during the entire period of 60 mins. […] Mild—slight decrease in activity, responsive when provoked. Moderate—decrease in activity, less responsive when provoked.

SMILES | % Agonism Orx2 at Relative IC50 (Orx2) [%] | IC50 (Orx2) [µM] | IC50 Dilution of Orx2 (fold dilution) (Orx2) | % Agonism on Orx1 at OR2 IC50 (Orx1) [%] | % Cell viability at IC50 (cells) [%] | further results
O=c1c(O)c(-c2ccc(O)cc2)oc2cc(O)cc(O)c12 [Compound 12, 3,5,7-trihydroxy-2-(4-hydroxyphenyl)chromen-4-one] | 65 | 53.3 | 7039.1 | 64.4 | 80.39 | –
COc1c(O)cc2oc(-c3ccc(O)cc3)c(OC)c(=O)c2c1O [Compound 14, 5,7-dihydroxy-2-(4-hydroxyphenyl)-3,6-dimethoxychromen-4-one] | 50 | 89 | 3466.5 | 62.98 | 94.58 | –
C[C@@H]1O[C@@H](OC[C@H]2O[C@@H](Oc3c(-c4ccc(O)c(O)c4)oc4cc(O)cc(O)c4c3=O)[C@H](O)[C@@H](O)[C@@H]2O)[C@H](O)[C@H](O)[C@H]1O [Compound 15, 2-(3,4-dihydroxyphenyl)-5,7-dihydroxy-3-[(2S,3R,4S,5S,6R)-3,4,5-trihydroxy-6-[[(2R,3R,4R,5R,6S)-3,4,5-trihydroxy-6-methyloxan-2-yl]oxymethyl]oxan-2-yl]oxychromen-4-one] | 65 | 79.1 | 2283.9 | 67.71 | 103.46 | –
O=c1c(O)c(-c2ccc(O)c(O)c2)oc2cc(O)cc(O)c12 [Compound 29, 2-(3,4-dihydroxyphenyl)-3,5,7-trihydroxychromen-4-one] | – | – | – | – | – | 15 min effects (adverse effects) (male Sprague-Dawley rat; 30 mg/kg p.o.): No adverse effects; 30 min effects (adverse effects) (male Sprague-Dawley rat; 30 mg/kg p.o.): No adverse effects; 60 min effects (adverse effects) (male Sprague-Dawley rat; 30 mg/kg p.o.): No adverse effects; 15 min effects (adverse effects) (male Sprague-Dawley rat; 100 mg/kg p.o.): Reduced activity; 30 min effects (adverse effects) (male Sprague-Dawley rat; 100 mg/kg p.o.): No adverse effects; 60 min effects (adverse effects) (male Sprague-Dawley rat; 100 mg/kg p.o.): No adverse effects; 15 min effects (adverse effects) (male Sprague-Dawley rat; 315 mg/kg p.o.): Reduced activity; 30 min effects (adverse effects) (male Sprague-Dawley rat; 315 mg/kg p.o.): Reduced activity; also recorded: Pica (2/3); 60 min effects (adverse effects) (male Sprague-Dawley rat; 315 mg/kg p.o.): Reduced activity (3/3); 15 min effects (adverse effects) (male Sprague-Dawley rat; 500 mg/kg p.o.): Pica (1/3); 30 min effects (adverse effects) (male Sprague-Dawley rat; 500 mg/kg p.o.): Pica (2/3); 60 min effects (adverse effects) (male Sprague-Dawley rat; 500 mg/kg p.o.): No adverse effects; tolerability (male Sprague-Dawley rat; all four doses (30, 100, 315 and 500 mg/kg) p.o., 60 min observation): well-tolerated

Second part, led by results:

% Agonism Orx2 at Relative IC50 (Orx2) [%] | IC50 (Orx2) [µM] | IC50 Dilution of Orx2 (fold dilution) (Orx2) | % Agonism on Orx1 at OR2 IC50 (Orx1) [%] | SMILES | % Cell viability at IC50 (cells) [%] | further results
75 | 381 | 5786.9 | 77.95 | COc1ccc(C(=O)CCc2ccc(O)cc2)c(O)c1 [Compound 16, 1-(2-hydroxy-4-methoxyphenyl)-3-(4-hydroxyphenyl)propan-1-one] | 85.11 | –
80 | 188 | 5786.9 | 100.52 | O=C(CCc1ccc(O)cc1)c1ccc(O)cc1OC1OC(CO)C(O)C(O)C1O (stereo not drawn) [Compound 17, 3-(4-hydroxyphenyl)-1-[4-hydroxy-2-[3,4,5-trihydroxy-6-(hydroxymethyl)oxan-2-yl]oxyphenyl]propan-1-one] | 89.87 | –
80 | 319 | 5786.9 | 68.74 | O=C(CCc1ccc(O)cc1)c1ccc(OC2OC(CO)C(O)C(O)C2O)cc1O (stereo not drawn) [Compound 19, 3-(4-hydroxyphenyl)-1-[2-hydroxy-4-[3,4,5-trihydroxy-6-(hydroxymethyl)oxan-2-yl]oxyphenyl]propan-1-one] | 86.12 | –
45 | 146 | – | – | O=C(O)[C@H]1O[C@@H](Oc2c(-c3ccc(O)cc3)oc3cc(O)cc(O)c3c2=O)[C@H](O)[C@@H](O)[C@@H]1O [Compound 20, (2S,3S,4S,5R,6S)-6-[5,7-dihydroxy-2-(4-hydroxyphenyl)-4-oxochromen-3-yl]oxy-3,4,5-trihydroxyoxane-2-carboxylic acid] | 83.58 | –
50 | 174 | – | 104.1268 | C[C@@H]1O[C@@H](O[C@H]2[C@H](Oc3c(-c4ccc(O)cc4)oc4cc(O)cc(O)c4c3=O)O[C@H](CO)[C@@H](O)[C@@H]2O)[C@H](O)[C@H](O)[C@H]1O [Compound 23, 3-[(2S,3R,4S,5S,6R)-4,5-dihydroxy-6-(hydroxymethyl)-3-[(2S,3R,4R,5R,6S)-3,4,5-trihydroxy-6-methyloxan-2-yl]oxyoxan-2-yl]oxy-5,7-dihydroxy-2-(4-hydroxyphenyl)chromen-4-one] | 107.68 | –
45 | 191 | – | 48.83 | CC1O[C@@H](OC2C(O)[C@H](Oc3c(-c4ccc(O)cc4)oc4cc(O)cc(O)c4c3=O)OC(CO)[C@H]2O)[C@@H](O)C(O)[C@H]1O (stereo partly drawn) [Compound 24, 3-[(2S,5R)-3,5-dihydroxy-6-(hydroxymethyl)-4-[(2S,3S,5R)-3,4,5-trihydroxy-6-methyloxan-2-yl]oxyoxan-2-yl]oxy-5,7-dihydroxy-2-(4-hydroxyphenyl)chromen-4-one] | 96.12 | –
